{"source": "patent US20050233467A1", "about": "“Visible wavelength fluorescent calcium indicators that are (i) leakage resistant and (ii) operate near membranes” (priority 2004, published 2005)", "test_system": "myocytes of mouse small mesenteric arteries", "experiment": "Localization of dye in walls of mouse small mesenteric arteries (imaging)", "format": "cell-based", "settings": "mouse small mesenteric artery wall, activated cells", "from_the_text": "The plane is tangential to the artery, very close to the coverslip. The spindle-shaped cells run horizontally, the artery lumen runs vertically. […] The FLUO-MOMO images are quite bright because the cells have been activated and [Ca^2+] cyt has risen. […] (Photo courtesy of Dr. Blaustein of The University of Maryland Medical School.)", "data": [{"compound": "CCN(CC)c1ccc(/C=C/C=C/C=C/c2cc[n+](CCC[N+](CC)(CC)CC)cc2)cc1.[Br-].[Br-]", "note": "[FM4-64]", "values": [{"measurement": "localization of dye in the cell", "result": "localizes to the plasma membrane"}]}]}
